Test results taken from ChEMBL document CHEMBL1201862, “PubChem BioAssay data set” (2004).
The source made the active and inactive calls.

What was measured:
Tumor necrosis factor = Tumor necrosis factor (Homo sapiens, UniProt P01375); assay: analog potency on TNFa NF-kB signaling – cell-based, revised, SAR follow-up (AID 2337); assay type: functional
[1] = target: Nucleotide-binding oligomerization domain-containing protein 2 (Homo sapiens, UniProt Q9HC29); assay: PubChem AID 2334; assay type: functional
Nucleotide-binding oligomerization domain-containing protein 2, sequence (Q9HC29 whole entry, the tested form may be a part): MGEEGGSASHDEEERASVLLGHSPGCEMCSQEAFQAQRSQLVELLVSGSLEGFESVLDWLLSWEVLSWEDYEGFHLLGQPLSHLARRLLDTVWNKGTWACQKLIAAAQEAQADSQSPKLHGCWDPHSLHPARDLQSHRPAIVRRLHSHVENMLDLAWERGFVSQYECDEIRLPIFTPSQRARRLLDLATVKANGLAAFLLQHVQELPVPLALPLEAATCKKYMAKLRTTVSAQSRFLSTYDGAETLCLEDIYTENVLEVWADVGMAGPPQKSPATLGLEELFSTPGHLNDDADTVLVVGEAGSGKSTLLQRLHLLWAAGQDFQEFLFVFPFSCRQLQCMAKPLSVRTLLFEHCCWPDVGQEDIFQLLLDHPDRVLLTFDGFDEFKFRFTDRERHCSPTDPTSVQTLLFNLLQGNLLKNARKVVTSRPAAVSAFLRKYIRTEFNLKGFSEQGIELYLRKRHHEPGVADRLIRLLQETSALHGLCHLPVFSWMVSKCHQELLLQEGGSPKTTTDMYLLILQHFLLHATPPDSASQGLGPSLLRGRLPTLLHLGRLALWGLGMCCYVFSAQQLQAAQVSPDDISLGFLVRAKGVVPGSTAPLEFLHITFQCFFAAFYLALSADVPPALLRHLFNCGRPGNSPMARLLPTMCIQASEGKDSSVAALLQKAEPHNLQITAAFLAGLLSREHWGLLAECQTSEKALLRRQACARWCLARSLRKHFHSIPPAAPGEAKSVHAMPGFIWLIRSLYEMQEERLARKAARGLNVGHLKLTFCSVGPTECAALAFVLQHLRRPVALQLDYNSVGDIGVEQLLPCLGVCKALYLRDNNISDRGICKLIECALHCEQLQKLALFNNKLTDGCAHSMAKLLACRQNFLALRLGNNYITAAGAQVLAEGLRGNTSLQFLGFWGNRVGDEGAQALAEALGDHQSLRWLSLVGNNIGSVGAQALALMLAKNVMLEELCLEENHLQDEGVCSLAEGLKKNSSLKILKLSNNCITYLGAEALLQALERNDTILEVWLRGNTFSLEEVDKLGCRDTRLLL

HEK293 = assay: cells; details: Homo sapiens;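 further: cells exposed to compound for 14 hours overnight before viability readout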
[2] = target: T1, Nucleotide-binding oligomerization domain-containing protein 1 (Homo sapiens, UniProt Q9Y239); assay: blockers of NOD1 pathway activity – revised, SAR follow-up (AID 2333); assay type: functional
T1 sequence (Q9Y239 whole entry): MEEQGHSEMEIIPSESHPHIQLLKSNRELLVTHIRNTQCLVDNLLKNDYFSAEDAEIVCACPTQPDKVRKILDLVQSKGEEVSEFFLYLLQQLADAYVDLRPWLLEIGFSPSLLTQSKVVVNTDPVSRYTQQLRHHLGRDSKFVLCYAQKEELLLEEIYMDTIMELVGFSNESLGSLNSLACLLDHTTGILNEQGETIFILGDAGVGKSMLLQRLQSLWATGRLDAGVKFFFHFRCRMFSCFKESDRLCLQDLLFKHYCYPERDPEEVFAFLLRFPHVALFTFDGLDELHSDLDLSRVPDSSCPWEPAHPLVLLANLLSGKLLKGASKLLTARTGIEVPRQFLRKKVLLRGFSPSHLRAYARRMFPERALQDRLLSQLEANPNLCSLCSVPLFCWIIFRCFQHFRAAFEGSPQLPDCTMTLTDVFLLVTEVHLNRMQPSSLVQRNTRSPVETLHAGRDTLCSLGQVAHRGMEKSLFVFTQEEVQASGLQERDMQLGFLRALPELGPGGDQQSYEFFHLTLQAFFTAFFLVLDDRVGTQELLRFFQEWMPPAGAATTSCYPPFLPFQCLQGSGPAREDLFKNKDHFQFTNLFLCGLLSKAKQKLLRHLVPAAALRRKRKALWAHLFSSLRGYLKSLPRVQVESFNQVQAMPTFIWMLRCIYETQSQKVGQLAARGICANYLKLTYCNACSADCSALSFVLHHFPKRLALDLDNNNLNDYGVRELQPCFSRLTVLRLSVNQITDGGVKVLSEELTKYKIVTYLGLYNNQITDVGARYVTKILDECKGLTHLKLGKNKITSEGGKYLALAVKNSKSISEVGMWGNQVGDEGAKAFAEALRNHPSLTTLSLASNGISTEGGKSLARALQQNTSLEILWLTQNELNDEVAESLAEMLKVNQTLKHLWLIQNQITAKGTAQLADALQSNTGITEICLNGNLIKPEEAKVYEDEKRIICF

Cytochrome P450 2C19 = Cytochrome P450 2C19 (Homo sapiens, UniProt P33261); assay: Cytochrome panel assay with activity outcomes. Panel member name: p450-cyp2c19 Compounds with AC50 equal or less than 10 uM are considered active; assay type: functional; details: read-out: AC50
Cytochrome P450 2C19, sequence (P33261 whole entry): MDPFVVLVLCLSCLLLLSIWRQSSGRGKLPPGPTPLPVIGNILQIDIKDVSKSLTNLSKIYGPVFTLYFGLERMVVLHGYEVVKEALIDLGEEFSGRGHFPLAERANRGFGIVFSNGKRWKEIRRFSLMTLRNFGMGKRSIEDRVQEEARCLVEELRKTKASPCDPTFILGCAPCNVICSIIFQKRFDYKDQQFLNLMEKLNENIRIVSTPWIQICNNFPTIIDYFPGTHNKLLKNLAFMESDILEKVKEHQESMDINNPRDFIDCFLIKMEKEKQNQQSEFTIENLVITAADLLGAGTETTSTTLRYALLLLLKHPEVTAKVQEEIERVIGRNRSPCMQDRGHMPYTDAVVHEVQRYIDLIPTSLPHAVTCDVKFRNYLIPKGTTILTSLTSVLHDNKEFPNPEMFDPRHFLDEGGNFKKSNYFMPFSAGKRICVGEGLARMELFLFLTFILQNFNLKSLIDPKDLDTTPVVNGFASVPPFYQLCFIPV

Cytochrome P450 3A4 = Cytochrome P450 3A4 (Homo sapiens, UniProt P08684);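 further: CYP3A4 tested as one member of a cytochrome P450 panel screen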
Cytochrome P450 3A4, sequence (P08684 whole entry): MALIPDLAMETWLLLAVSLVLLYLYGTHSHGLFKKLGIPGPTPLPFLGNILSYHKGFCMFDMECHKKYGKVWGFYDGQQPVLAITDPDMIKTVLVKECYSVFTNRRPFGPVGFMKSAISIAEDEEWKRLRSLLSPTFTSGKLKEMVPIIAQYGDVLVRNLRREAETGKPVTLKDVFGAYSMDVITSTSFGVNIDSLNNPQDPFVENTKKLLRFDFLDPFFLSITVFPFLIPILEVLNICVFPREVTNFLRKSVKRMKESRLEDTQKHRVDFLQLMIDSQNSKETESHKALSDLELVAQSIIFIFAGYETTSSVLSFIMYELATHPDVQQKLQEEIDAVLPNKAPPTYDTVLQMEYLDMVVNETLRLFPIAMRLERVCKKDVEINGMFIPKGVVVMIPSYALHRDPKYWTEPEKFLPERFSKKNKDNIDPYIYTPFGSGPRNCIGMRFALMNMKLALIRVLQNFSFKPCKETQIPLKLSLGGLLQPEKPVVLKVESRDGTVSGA

Cytochrome P450 2C9 = Cytochrome P450 2C9 (Homo sapiens, UniProt P11712)
Cytochrome P450 2C9, sequence (P11712 whole entry): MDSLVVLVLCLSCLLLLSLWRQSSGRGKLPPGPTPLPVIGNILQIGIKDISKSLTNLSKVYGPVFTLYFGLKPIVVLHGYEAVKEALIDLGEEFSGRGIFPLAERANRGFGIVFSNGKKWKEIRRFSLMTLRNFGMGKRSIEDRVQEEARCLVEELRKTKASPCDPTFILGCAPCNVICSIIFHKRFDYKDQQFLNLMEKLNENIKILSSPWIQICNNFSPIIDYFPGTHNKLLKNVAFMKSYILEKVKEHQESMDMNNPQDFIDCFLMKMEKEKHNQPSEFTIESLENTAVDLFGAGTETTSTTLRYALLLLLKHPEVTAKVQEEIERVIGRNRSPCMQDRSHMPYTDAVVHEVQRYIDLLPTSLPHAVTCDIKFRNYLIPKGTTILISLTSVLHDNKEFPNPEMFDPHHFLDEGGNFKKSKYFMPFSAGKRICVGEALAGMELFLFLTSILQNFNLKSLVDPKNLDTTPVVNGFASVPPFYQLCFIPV

Cytochrome P450 2D6 = Cytochrome P450 2D6 (Homo sapiens, UniProt P10635);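 further: CYP2D6 member of a cytochrome P450 panel assay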
Cytochrome P450 2D6, sequence (P10635 whole entry): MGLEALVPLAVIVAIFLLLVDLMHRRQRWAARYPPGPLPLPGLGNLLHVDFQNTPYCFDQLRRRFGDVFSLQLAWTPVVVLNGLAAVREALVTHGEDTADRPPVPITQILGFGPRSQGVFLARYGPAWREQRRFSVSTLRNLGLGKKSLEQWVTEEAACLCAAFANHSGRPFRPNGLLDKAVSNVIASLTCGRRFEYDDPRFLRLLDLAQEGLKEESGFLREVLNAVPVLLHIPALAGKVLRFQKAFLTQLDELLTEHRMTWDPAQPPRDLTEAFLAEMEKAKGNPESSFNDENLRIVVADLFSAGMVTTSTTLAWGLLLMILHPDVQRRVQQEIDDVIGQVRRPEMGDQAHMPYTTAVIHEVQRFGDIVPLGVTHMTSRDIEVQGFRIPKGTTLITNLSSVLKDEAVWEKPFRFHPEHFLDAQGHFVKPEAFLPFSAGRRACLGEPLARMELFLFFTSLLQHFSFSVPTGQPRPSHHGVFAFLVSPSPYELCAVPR

[3] = target: T2, DNA repair and recombination protein RAD54-like (Homo sapiens, UniProt Q92698); assay: RAD54 Holliday junction migration blockers – biochemical, fluorescence, cherry-picked samples, dose series, confirmation (AID 651657); assay type: functional
T2 sequence (Q92698 whole entry): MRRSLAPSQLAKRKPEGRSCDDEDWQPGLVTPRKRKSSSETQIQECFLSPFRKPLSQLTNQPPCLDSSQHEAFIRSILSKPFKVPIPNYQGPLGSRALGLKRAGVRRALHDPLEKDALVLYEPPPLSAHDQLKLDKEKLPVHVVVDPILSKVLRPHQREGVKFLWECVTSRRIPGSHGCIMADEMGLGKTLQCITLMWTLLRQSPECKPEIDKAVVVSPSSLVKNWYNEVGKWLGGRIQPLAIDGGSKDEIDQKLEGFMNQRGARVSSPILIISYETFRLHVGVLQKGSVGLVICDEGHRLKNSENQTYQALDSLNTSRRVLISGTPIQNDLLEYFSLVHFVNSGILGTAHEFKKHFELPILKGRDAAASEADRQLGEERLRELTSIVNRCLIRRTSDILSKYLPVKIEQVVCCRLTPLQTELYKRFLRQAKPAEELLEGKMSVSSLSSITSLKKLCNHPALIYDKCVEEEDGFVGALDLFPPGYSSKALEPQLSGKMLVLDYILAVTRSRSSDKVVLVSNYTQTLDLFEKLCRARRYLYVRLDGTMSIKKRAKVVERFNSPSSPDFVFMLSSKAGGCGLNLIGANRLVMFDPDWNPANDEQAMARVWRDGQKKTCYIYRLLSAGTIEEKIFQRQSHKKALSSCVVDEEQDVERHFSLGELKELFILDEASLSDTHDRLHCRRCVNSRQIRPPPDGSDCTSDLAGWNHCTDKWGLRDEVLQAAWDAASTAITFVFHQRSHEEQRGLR

Escherichia coli = assay: microbe, parasite or virus in culture
Mu-type opioid receptor = Mu-type opioid receptor (Homo sapiens, UniProt P35372); assay: (§1) Counterscreen for agonists of heterodimerization of the mu 1 (OPRM1) and delta 1 (OPRD1) opioid receptors: Luminescence-based cell-based high throughput dose response assay to identify agonists of OPRM1 homodimerization.; assay type: functional
Mu-type opioid receptor, sequence (P35372 whole entry, the tested form may be a part): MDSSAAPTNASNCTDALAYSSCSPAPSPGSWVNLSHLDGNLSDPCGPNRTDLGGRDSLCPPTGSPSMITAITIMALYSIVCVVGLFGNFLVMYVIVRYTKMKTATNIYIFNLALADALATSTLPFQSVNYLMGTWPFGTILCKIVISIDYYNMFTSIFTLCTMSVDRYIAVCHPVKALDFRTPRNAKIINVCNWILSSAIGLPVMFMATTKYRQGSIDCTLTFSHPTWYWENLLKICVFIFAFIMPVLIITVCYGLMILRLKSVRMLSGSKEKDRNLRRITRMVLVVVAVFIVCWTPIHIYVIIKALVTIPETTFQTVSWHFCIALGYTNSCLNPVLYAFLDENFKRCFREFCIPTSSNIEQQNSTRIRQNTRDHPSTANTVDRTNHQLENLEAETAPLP

[4] = target: T3, Carboxy-terminal domain RNA polymerase II polypeptide A small phosphatase 1 (Homo sapiens, UniProt Q9GZU7); assay: CTDSP1 inhibitors, concentration-response, biochemical, absorbance readout, ultra-high-throughput screen actives (AID 540297); assay type: functional
T3 sequence (Q9GZU7 whole entry): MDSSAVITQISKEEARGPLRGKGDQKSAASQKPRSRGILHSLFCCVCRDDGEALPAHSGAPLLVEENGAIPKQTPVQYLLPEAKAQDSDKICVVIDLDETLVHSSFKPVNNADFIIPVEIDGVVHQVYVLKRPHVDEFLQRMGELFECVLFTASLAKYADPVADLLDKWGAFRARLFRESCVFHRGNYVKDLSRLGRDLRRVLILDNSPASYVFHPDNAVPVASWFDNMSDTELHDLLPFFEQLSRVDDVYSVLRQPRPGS

[5] = target: 5-hydroxytryptamine receptor 5A (Homo sapiens, UniProt P47898); assay: Counterscreen for agonists of OPRM1-OPRD1 heterodimerization: luminescence-based cell-based high throughput dose response assay to identify agonists of 5-hydroxytryptamine (serotonin) 5A receptor (HTR5A). [Related pubchem assays (depositor defined):AID504326, AID504355, AID504692, AID504904, AID504905]; assay type: functional
5-hydroxytryptamine receptor 5A, sequence (P47898 whole entry): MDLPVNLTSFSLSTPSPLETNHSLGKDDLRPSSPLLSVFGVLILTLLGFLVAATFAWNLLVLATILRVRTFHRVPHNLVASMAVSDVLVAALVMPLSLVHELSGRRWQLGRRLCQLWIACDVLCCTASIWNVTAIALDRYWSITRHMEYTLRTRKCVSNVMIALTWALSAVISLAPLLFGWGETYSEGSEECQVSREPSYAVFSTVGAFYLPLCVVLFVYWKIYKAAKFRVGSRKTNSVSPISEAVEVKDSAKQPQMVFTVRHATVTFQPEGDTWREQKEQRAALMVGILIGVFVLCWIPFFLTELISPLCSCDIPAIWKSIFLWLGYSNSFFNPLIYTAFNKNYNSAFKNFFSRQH

[6] = target: Delta-type opioid receptor (Homo sapiens, UniProt P41143); assay: as §1, with “of OPRD1” for “of OPRM1”, “homodimerization. [Related pubchem assays (depositor defined):AID504326, AID504355, AID504692, AID504904, AID504905]” for “homodimerization.”; assay type: functional
Delta-type opioid receptor, sequence (P41143 whole entry): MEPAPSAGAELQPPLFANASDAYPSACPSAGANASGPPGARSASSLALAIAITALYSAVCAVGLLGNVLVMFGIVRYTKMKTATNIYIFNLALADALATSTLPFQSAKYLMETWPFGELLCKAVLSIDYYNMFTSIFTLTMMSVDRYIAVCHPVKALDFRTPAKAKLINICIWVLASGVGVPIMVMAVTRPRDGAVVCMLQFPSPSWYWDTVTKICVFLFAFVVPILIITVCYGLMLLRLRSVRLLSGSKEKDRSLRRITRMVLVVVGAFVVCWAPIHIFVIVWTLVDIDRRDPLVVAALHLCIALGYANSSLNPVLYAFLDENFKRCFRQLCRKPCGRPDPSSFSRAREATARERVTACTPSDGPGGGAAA

[7] = Luminescence Cell-Based Dose Confirmation HTS to Identify Activators of 5'UTR Stem-Loop Driven Alpha-Synuclein mRNA Translation in H4 Neuroglioblastoma Cells. [Related pubchem assays: 1829 (Project Summary), 1814 (Primary HTS)]; assay type: functional
HeLa = assay: ATP-based viability loss in HeLa cells – cell-based, CellTiter-Glo luminescence, cherry-pick samples, cytotoxicity control for MITF activator project, dose response (AID 540259); assay type: functional; details: Homo sapiens
H4 = assay: Luminescence Cell-Based Dose Response HTS to Identify Activators of 5'UTR Stem-Loop Driven Prion Protein mRNA Translation in H4 Neuroglioblastoma Cells. [Related pubchem assays: 1829 (Project Summary), 1814 (Primary HTS)]; assay type: functional; details: Homo sapiens
[8] = Luminescence Cell-Based Dose Response HTS to Identify Activators of Luciferase Translation or Activity in H4 […] Cells. [Related pubchem assays: 1829 (Project Summary), 1814 (Primary HTS)]; assay type: functional
INS1 = assay: INS-1E survival protection against cytokine death – cell-based, luminescence, retest, dose response (AID 449756); assay type: functional; details: Rattus norvegicus;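 further: cell death triggered by IL-1 beta plus TNF-alpha plus IFN-gamma mixture; protective hits raise ATP signal compared with cytokine alone wells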
CHO = CHO cell viability loss, potency – luminescence, cytotoxicity control for TLR9-MyD88 binding inhibitor project, dose response (AID 588339); assay type: functional, cell-based, hamster; details: Cricetulus griseus;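 further: CHO cells stably coexpressing TLR9 and MyD88 fusions from primary screen; compound exposure lasted 48 hours before viability readout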
Beta Lactamase = Beta Lactamase (Pseudomonas aeruginosa, UniProt Q932Y6); assay: BLA reporter interference, concentration series – BLA reporter cells, FRET fluorescence, artefact control for TLR9-MyD88 binding inhibitor project, dose response (AID 588341); assay type: cell-based;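 further: cell based assay in CHO-K1 cells stably expressing beta-lactamase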
Beta Lactamase, sequence (Q932Y6 whole entry): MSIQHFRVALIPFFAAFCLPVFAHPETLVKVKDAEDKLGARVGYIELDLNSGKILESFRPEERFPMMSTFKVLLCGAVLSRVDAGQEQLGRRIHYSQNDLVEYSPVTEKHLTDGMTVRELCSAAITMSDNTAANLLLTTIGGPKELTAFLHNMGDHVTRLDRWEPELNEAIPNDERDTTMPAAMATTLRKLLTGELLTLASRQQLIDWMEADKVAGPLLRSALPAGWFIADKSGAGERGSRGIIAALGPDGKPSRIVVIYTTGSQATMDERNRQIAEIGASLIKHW

[9] = target: T4, Latent membrane protein 1 (Human herpesvirus 4 (strain B95-8), UniProt P03230); assay: LMP1 TES1 pathway selectivity over dsRED control – imaging, HEK293T, dual-color eGFP/dsRED, cherry-picks, selectivity assay for LMP1 NF-kB inhibitor project, dose response (AID 588398); assay type: functional, cell-based
T4 sequence (P03230 whole entry): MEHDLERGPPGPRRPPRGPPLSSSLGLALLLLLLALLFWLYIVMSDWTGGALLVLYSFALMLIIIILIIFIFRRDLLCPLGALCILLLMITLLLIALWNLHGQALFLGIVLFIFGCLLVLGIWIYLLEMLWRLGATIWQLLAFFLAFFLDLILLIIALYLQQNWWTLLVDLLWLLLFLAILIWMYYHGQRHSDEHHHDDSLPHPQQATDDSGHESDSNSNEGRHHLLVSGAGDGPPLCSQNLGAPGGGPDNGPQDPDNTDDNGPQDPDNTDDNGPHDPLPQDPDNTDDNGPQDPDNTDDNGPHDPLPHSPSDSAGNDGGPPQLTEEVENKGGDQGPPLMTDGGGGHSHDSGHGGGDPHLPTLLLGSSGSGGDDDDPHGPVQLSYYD

Tumor necrosis factor, sequence (P01375 whole entry, the tested form may be a part): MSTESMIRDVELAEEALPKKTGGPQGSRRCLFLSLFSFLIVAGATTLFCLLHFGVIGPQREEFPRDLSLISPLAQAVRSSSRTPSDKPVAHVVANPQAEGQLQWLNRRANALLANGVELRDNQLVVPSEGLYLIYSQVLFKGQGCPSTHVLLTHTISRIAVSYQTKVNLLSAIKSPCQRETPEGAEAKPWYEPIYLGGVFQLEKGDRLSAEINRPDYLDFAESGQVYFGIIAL

With `CC(/C=C/c1ccccc1)=NNC(=O)c1cccc(Br)c1` the IC50 (Tumor necrosis factor) was > 20 µM (inactive), the IC50 [1] was > 20 µM (inactive) and the IC50 (HEK293) was > 20 µM (inactive). For the same compound, the IC50 [2] was > 20 µM (inactive).

In the case of `CCN1CCc2c(sc(NC(=O)c3ccc(S(=O)(=O)N4CCOCC4)cc3)c2C(=O)OC)C1.Cl`, the AC50 (Cytochrome P450 2C19) is reported as 31.6 µM (inconclusive), the AC50 (Cytochrome P450 3A4) is reported as “inconclusive” and the AC50 (Cytochrome P450 2C9) is reported as 5.01 µM (inconclusive). For the same compound, the AC50 (Cytochrome P450 2D6) was “inconclusive” and the AC50 [3] was 12.8 µM (active).

For `O=C(COc1ccc2c3c(c(=O)oc2c1)CCCC3)NCc1ccncc1`, the AC50 (Escherichia coli) was 38.2 µM (active).

For `Cc1cc(Cl)ccc1OCC(=O)N[C@@H](Cc1ccccc1)c1nc2ccccc2[nH]1`, the EC50 (Mu-type opioid receptor) was > 92.5 µM (inactive), the IC50 [4] was 21.5 µM (active) and the EC50 [5] was > 92.5 µM (inactive). The EC50 [6] was > 92.5 µM (inactive).

For `Cc1ccc(-n2nnc(-c3ccnc4ccccc34)n2)cc1`, the EC50 [7] was 0.371 µM (active), the AC50 (HeLa) was 45.4 µM (active) and the EC50 (H4) was 14.5 µM (active). For the same compound, the EC50 [8] was 0.745 µM (active).

For `CC(C)(/N=N\C(C)(C)C(=N)N)C(=N)N.Cl`, the AC50 (Cytochrome P450 2D6) was “inconclusive”.

With `CC(C)CNC(=O)COC(=O)c1c2c(nc3ccccc13)/C(=C/c1cccs1)CC2` the AC50 (INS1) was 43.8 µM (active), the IC50 (CHO) was > 49.7 µM (inactive) and the IC50 (Beta Lactamase) was 3.52 µM (active).

For `Cc1ccc(OCCn2cc(C(=S)N3CCCC3)c3ccccc32)cc1C`, the AC50 [9] was 72.9 µM (active).
